Reference: paper PMC10610289, “Novel Baicalein-Derived Inhibitors of Plasmodium falciparum” (Pathogens, 2023)
“Also recorded” adds a separate entry of the source. Read-outs that look alike come from different tables or passages of the source.

Experiments:
[1] = Body weight of mice during treatment; type: in vivo, Swiss mice; settings: 100 mg/kg oral
Excerpt: One crucial aspect of evaluating potential malaria treatments is assessing their safety and tolerance in the host organism. In this regard, the present study closely monitored the body weights of the mice throughout the drug treatment.

[2] = tested on: P. falciparum female gametocytes; assay: P. falciparum dual gamete formation assay (PfDGFA), female; type: cell-based; settings: Plasmodium falciparum, read-out: DGF Assay—Inhibition, female
Experimental: (§1) The FNDR-10132 was evaluated in a male and female gametocyte functional viability assay by following the procedure described in Ruecker et al..

[3] = tested on: Dd2 390048 (Pfpi4k S743T); assay: Cross-resistance panel, Dd2 390048; type: cell-based, Plasmodium falciparum
Experimental: (§2) Parasite lines used in the study were P. falciparum 3D7 (Pf3D7 Chloroquine-sensitive) and Plasmodium falciparum K1 (PfK1 Chloroquine-resistant) sourced from the Malaria Research and Reference Reagent Resource Center (MR4), ATCC, Manassas, VA, USA. FNDR-10132 was tested against a cross-resistance panel at Swiss TPH, Allschwil, Switzerland.

[4] = tested on: Plasmodium falciparum 3D7 (chloroquine-sensitive); assay: Antimalarial assay (IC50 determination), asexual blood stage, SYBR green; type: cell-based; settings: Plasmodium falciparum
Experimental: as §2
(§3) As per the modified protocol stated by Trager and Jensen, 1976, Plasmodium falciparum parasite lines (Pf3D7 and PfK1) were cultured. Plasmodium strains were maintained in RPMI-1640 medium at 3–5% hematocrit supplemented with 0.2% w/v glucose, 0.5% w/v AlbuMaxII, 0.2% w/v NaHCO3, and 30 μg/mL gentamycin, and, additionally, 15 μM hypoxanthine was added and incubated at 37 °C with 5% O2, 5% CO2, and 90% N2. After 24 h, the medium was changed. After attaining high parasitemia (6–8% mature stage parasite), the culture was sub-passaged with fresh human RBCs.
(§4) All tested compounds were dissolved in a DMSO solvent and a prepared stock solution of 10 mM. The reference drug, Chloroquine diphosphate, was dissolved in CRPMI. Working solutions were made from stock solution after diluting in a CRPMI medium during the experiment. The maximum concentration of DMSO used in this study was <1%. It had no parasiticidal effect.
(§5) The P. falciparum (0.8–1% parasitemia and 1% hematocrit) synchronous culture was exposed for 72 h (at 37 °C, 5% O2, 5% CO2, and 90% N2) to the serially diluted compound in 96-well plates. A total of 100 µL of RBCs lytic buffer (5 mM EDTA, 20 mM Tris pH 7.5, 0.08% Triton X-100, and 0.008% Saponin) containing the SYBR green 1-X final concentration was distributed to each well and incubated for one hour at room temp in the dark. The plates were read under a fluorescence reader at an excitation of 485 ± 20 nm and emission of 535 ± 25 nm. The IC50 values were calculated based on the DNA content of the parasite relative to its control. An inhibitory concentration of 50% (IC50) was determined using the MS-EXEL template.

[5] = tested on: Plasmodium falciparum K1 (chloroquine-resistant); assay: as above; type: cell-based; settings: read-out: ABS Assay Pf (K1)
Experimental: as §2, §3, §4, §5

THP-1 = assay: Cytotoxicity in THP-1; type: cell-based
Excerpt: (§6) Table 5 The compound FNDR-10132 progression profile. | column: FNDR-10132

[6] = tested on: P. falciparum male gametocytes; assay: P. falciparum dual gamete formation assay (PfDGFA), male; type: cell-based; settings: Plasmodium falciparum, read-out: DGF Assay—Inhibition, male
Experimental: as §1

[7] = tested on: Dd2 DDD107498 (PfeEF2 Y186N); assay: Cross-resistance panel, Dd2 DDD107498; type: cell-based, Plasmodium falciparum
Experimental: as §2

Plasma stability = type: in vitro ADME
Excerpt: as §6

CCCCCCc1ccc(-c2cc(=O)c3c(O)c(O)c(O)cc3o2)cc1 [FNDR-10132]
Weight of Mice Day after the Last Dose of Treatment (Day 4) [1]: 27.5 gm | Weight of Mice at the Initiation of Treatment (Day 0) [1]: 25 gm | weight loss / tolerability (in words) [1]: no significant weight loss; also recorded: well-tolerated | Weight Gain ([1]; Day 0 to Day 4): 2.5 gm | inhibition at 1 µM [2]: 9.5% | IC50 ([3]; Plasmodium falciparum, DD2): 290 nM | Fold shift IC50 rel. Dd2 ([3]; strain Dd2 390048): 0.9 | IC50 ([4]; 3D7, 72 h, P. falciparum 3D7, 72 h exposure, read-out: IC50): 60 nM | IC50 ([4]; 3D7, chloroquine-sensitive 3D7, read-out: ABS Assay Pf (3D7)): 60 nM | IC50 [5]: 177 nM | Cytotoxicity THP-1 (THP-1): 90 µM | inhibition at 1 µM [6]: 1.6% | IC50 ([7]; Plasmodium falciparum, DD2): 211 nM | Fold shift IC50 rel. Dd2 ([7]; strain Dd2 DDD107498): 0.6 | Plasma Stability (Plasma stability; at 30 min): 87.61% | Plasma Stability (Plasma stability; at 45 min): 80.97%
